Laboratory results reported in patent publication US20240415819A1, “MACROCYCLIC COMPOUNDS AS PROTEASOME SUBUNIT BETA TYPE-5 INHIBITORS” (Lead Discovery Center GmbH, priority 2021, published 2024).
Where two headings read alike, the source gives them in different places.

Tests used:
[1] = from Cc1ccc(OCCC2CCCNC2)cc1CNC(=O)[C@H](CCc1ccccc1)NC(=O)[C@H](CC(=O)O)NC(=O)OCc1ccccc1; amide bond; HATU; DMF; 252.0 mM; 25.0 °C; 2 steps
[2] = test system: PBMC; assay: PBMC IL 17 stim. (Table 4, method not given); type: cell-based
[3] = test system: B cell; assay: B cell diff. (Table 4, method not given); type: cell-based
[4] = test system: B-cells isolated from PBMC's; assay: Chymotrypsin-like ProteasomeGlo assay in B-cells isolated from PBMCs; type: cell-based, human
Source text: PBMC's will be isolated from human blood followed by B-cell isolation from the PBMC's using the Miltenyi Isolation Kit. • 2. This experiment will use the Chymotrypsin-like ProteasomeGlo read-out to generate IC50's following compound treatment. • 3. Dilute all compounds 1:100 for the assay. • 4. […] Repeat the DMSO transfer with lane 12. • 5. Lane 12 should not be seeded with any cells. Only medium! • 6. For all steps, make sure the samples and reagents remain cool! • 7. While dealing with the buffy coats, be careful to not let any exposed skin to be in direct contact with the blood. […] PBMC isolation followed by B-cell isolation using the Miltenyi Kit • Day 2: B-cell plating, ECHO transfer and ProteasomeGlo assay For the initial steps and to make processing the buffy coats easier, separately process the buffy coats. • a. Cut the tube attached to the buffy coats carefully using a clean, sterile and fresh scalpel. • b. Transfer the blood into 2 individual 50 ml falcons. • c. Add an equal volume of DPBS to the blood in the falcons. • d. Add 20 ml of lymphocyte separating medium to two 50 ml falcons. • e. Carefully pour 15-20 ml of the blood+DPBS mix from step c. onto the lymphocyte separating medium from step d. • f. Centrifuge the falcons with the lymphocyte separating medium+blood mix at 800×g for 15 minutes using a swing-out rotor. • g. Following centrifugation, carefully remove the falcons from the centrifuge. • h. The following layers will be observed: • i. Aspirate the plasma layer off carefully without disturbing the different layers. • j. Remove the cell pellet using a pipette into two fresh 50 ml falcons. • k. Fill the falcons with the cells up to 50 ml with DPBS. • l. Centrifuge the falcons at 250×g for 10 minutes using a swing-out rotor (Brake-off). • m. Aspirate the complete DPBS off the cells without disturbing the cell pellet at the bottom of the falcon. • n. Re-suspend the cell pellet in 10 ml of 1×RBC lysis buffer. • o. Incubate the falcons at room temperature in the dark for 10 minutes. • p. After RBC lysis, centrifuge the tubes at 250×g for 10 minutes using a swing-out rotor (brake-off). • (*Note: If the cell pellet is still red or light red, repeat steps n. to p.!) • q. Re-suspend the cell pellet in DPBS up to 50 ml in the falcon. • r. Centrifuge the falcons at 250×g for 10 minutes using a swing-out rotor (Brake-off). • s. Aspirate the DPBS off the cells without disturbing the cell pellet at the bottom of the falcon. • t. Repeat the wash step as described in steps q. to s. 2× times more (total number of washes is 3×). • u. Aspirate the DPBS completely off the cell pellet after the last wash without disturbing the cell pellet. • v. Re-suspend the cell pellet in 20 ml of PBMC cell medium. • w. […] Re-suspend the pellet in volume of the B-cell isolation buffer calculated as follows: • k. Mix well using a 1 ml pipette and incubate the mix on ice for 20 mins. • l. In the meantime, equilibrate one LS Column as follows: • 1. Insert one LS Column into one slot of the separator as depicted in the pictures above. • 2. Place a 50 ml falcon at the bottom of the LS column to collect the wash flow-through. • 3. Add 3 ml of the B-cell isolation buffer into the column. • 4. Allow the buffer to flow-through making sure that the entire volume passes the column and that the column reservoir is empty before the addition of the cells. • 5. Remove the falcon with the flow-through and discard. • m. Place a fresh 50 ml falcon under the LS Column to collect the untouched B-cells isolated from the PBMCs. • n. Apply the entire volume of the cell+antibody+microbeads mix to the LS Column. • o. Collect the flow-through from each application of the mix into the same 50 ml falcon under the LS Column. • p. Once the complete volume of the cell+antibody+microbead mix has been passed through, proceed to washing of the column. • q. Add 3 ml of the B-cell isolation buffer to the LS Column and allow the buffer to flow-through. […]

[5] = test system: Karpas cells; assay: Glo assay of Karpas cells (Table 3; ProteasomeGlo plating scheme); type: cell-based; conditions: read-out: Pglo Karpas
Source text: Inhibition is indicated as IC50 [nM] (“-”=not measured). […] • Chymotrypsin-Like Cell-Based Proteasome-GloTM Assay (Promega; […]) • Cell culture 384-well plates (Greiner BioOne; 781080) • Dispensing cassette, MultiDrop Standard tube dispensing cassette (Thermo Scientific; 24072670) • DPBS (Pan BioTech; P04-36500) • Cell culture 384-well plates (Greiner BioOne; 781080) • CPD source plate: diamond-shape plate (Labcyte; LP-0200) • Intermediate plate (Labcyte; P-05525) [table] • a. Remove the plates with cells from the incubator. • b. Take all the plates including the compound plate, intermediate plate and Staurosporine plate to the ECHO. • c. Click on “Open” in the ECHO software and select the protocol “QLI5_25ul_30 uM-Grenier”. • d. Follow the on-screen prompts and instructions once you click “Start” to insert the compound plate, intermediate plate and destination plates. • e. Change the final number of destination plates on the program. • f. Follow the on-screen prompts and instructions once you click “Start” to load the Staurosporine and destination plates. • g. Once all the compounds, DMSO and Staurosporine have been transferred, place the destination plates in a wet tissue box. • h. Place the destination plates back into the incubator and incubate at 37° C., 5% CO2 for 105 minutes. • i. Re-seal all the compound+Stauro diamond and intermediate plates and store in the dark. Chymotrypsin like ProteasomeGlo Assay • 1. Thaw the components of the ProteasomeGlo assay at room temperature including the ProteasomeGlo Buffer, the lyophilized Luciferin Detection Reagent and the Suc-LLVY-Glo Substrate. • 2. Reconstitute the Luciferin Detection Reagent in the amber coloured bottle by adding 50 ml of the ProteasomeGlo Buffer. • 3. Vortex the Suc-LLVY-Glo Substrate briefly to reconstitute the Substrate well. • 4. Spin down the Substrate and add 250 μl of the Substrate to the reconstituted Luciferin Detection Reagent from step 2. • 5. Briefly vortex the amber bottle with the mix to prepare a homogenous solution. • 6. Place the mix prepared in step 5 to sit at room temperature for 60 minutes. • 7. After 60 minutes, pipette 25 μl of the mix from step 5 into all wells with the cells. • 8. Shake the plates for 2-5 minutes to ensure the complete mixing of the ProteasomeGlo reagent with the cells. • 9. Leave the plates in the dark for 10-15 minutes. • 10. Measure the luminescence read-out using the Viktor and the protocol “Luminescence_384Well_0.2 sec”. (Note: The Protoeasome-GloTM Reagent (combined Proteasome-GloTM Substrate, Proteasome-GloTM Buffer and Luciferin Detection Reagent) can be stored at 4° C. or -20° C. for 1 month with minimal loss of activity.)

[6] = Homo sapiens, B-cells isolated from PBMC's, read-out: Pglo B-Cell

| Structure (SMILES) | IC50 ([3]; B-cell) [nM] | IC50 [4, 6] [nM] | other results |
| --- | --- | --- | --- |
| Cc1ccc2cc1CNC(=O)[C@H](CCc1ccccc1)NC(=O)[C@@H](NC(=O)OCc1ccccc1)CC(=O)N1CCCC(CCO2)C1 (stereo partly drawn) [Compound 7, benzyl ((9S,12S)-5^4-methyl-8,11,14-trioxo-9-phenethyl-4-oxa-7,10-diaza-1(3,1)-piperidina-5(1,3)-benzenacyclotetradecaphane-12-yl)carbamate] | – | – | ring closure, yield of all isomers [1]: 68.9% |
| Cc1ccc2cc1CNC(=O)[C@H](CCc1ccccc1)NC(=O)[C@@H](NC(=O)C(C)(C)C)CC(=O)N1CCCC(CCO2)C1 (stereo partly drawn) [Compound 27, N-((9S,12S)-5^4-methyl-8,11,14-trioxo-9-phenethyl-4-oxa-7,10-diaza-1(3,1)-piperidina-5(1,3)-benzenacyclotetradecaphane-12-yl)pivalamide] | < 100 | < 100 | IC50 [2]: < 100 nM |
| Cc1ccc2cc1CNC(=O)[C@H](CCc1ccccc1)NC(=O)[C@@H](NC(=O)CC(C)(C)C)CC(=O)N1CCCC(CCO2)C1 (stereo partly drawn) [Compound 28, 3,3-dimethyl-N-((9S,12S)-5^4-methyl-8,11,14-trioxo-9-phenethyl-4-oxa-7,10-diaza-1(3,1)-piperidina-5(1,3)-benzenacyclotetradecaphane-12-yl)butanamide] | – | – | IC50 [5]: < 100 nM |
| Cc1ccc2cc1CNC(=O)[C@H](CCc1ccccc1)NC(=O)[C@@H](NC(=O)Cc1ccccc1)CC(=O)N1CCCC(CCO2)C1 (stereo partly drawn) [Compound 29, N-((9S,12S)-5^4-methyl-8,11,14-trioxo-9-phenethyl-4-oxa-7,10-diaza-1(3,1)-piperidina-5(1,3)-benzenacyclotetradecaphane-12-yl)-2-phenylacetamide] | < 100 | < 100 | IC50 [2]: < 100 nM |
| Cc1ccc2cc1CNC(=O)C(CCc1ccccc1)NC(=O)C(NC(=O)CCc1ccccc1)CC(=O)N1CCCC(CCO2)C1 [Compound 30, N-((9S,12S)-5^4-methyl-8,11,14-trioxo-9-phenethyl-4-oxa-7,10-diaza-1(3,1)-piperidina-5(1,3)-benzenacyclotetradecaphane-12-yl)-3-phenylpropanamide] | – | – | IC50 [3]: < 100 nM; IC50 ([4]; B-cells isolated from PBMC's, read-out: Pglo B-Cell): < 100 nM |
| Cc1ccc2cc1CNC(=O)[C@H](CCc1ccccc1)NC(=O)[C@@H](NC(=O)c1nc3ccccc3[nH]1)CC(=O)N1CCCC(CCO2)C1 (stereo partly drawn) [Compound 31, N-((9S,12S)-5^4-methyl-8,11,14-trioxo-9-phenethyl-4-oxa-7,10-diaza-1(3,1)-piperidina-5(1,3)-benzenacyclotetradecaphane-12-yl)-1H-benzo[d] imidazole-2-carboxamide] | – | < 100 | – |
| Cc1ccc2cc1CNC(=O)[C@H](CCc1ccccc1)NC(=O)[C@@H](NC(=O)c1ncccn1)CC(=O)N1CCCC(CCO2)C1 (stereo partly drawn) [Compound 32, N-((9S,12S)-5^4-methyl-8,11,14-trioxo-9-phenethyl-4-oxa-7,10-diaza-1(3,1)-piperidina-5(1,3)-benzenacyclotetradecaphane-12-yl)pyrimidine-2-carboxamide] | – | < 100 | – |
| CC(=O)N[C@H]1CC(=O)N2CCCC(CCOc3ccc(C)c(c3)CNC(=O)[C@H](CCc3ccccc3)NC1=O)C2 (stereo partly drawn) [Compound 33, N-((9S,12S)-5^4-methyl-8,11,14-trioxo-9-phenethyl-4-oxa-7,10-diaza-1(3,1)-piperidina-5(1,3)-benzenacyclotetradecaphane-12-yl)acetamide] | < 100 | < 100 | – |
| Cc1ccc2cc1CNC(=O)[C@H](CCc1ccccc1)NC(=O)[C@@H](Nc1ncccn1)CC(=O)N1CCCC(CCO2)C1 (stereo partly drawn) [Compound 34, (9S,12S)-5^4-methyl-9-phenethyl-12-(pyrimidin-2-ylamino)-4-oxa-7,10-diaza-1(3,1)] | < 100 | – | IC50 ([4]; Homo sapiens, read-out: Pglo B-Cell [nM]): < 100 nM |
| Cc1ccc2cc1CNC(=O)[C@H](CCc1ccccc1)NC(=O)[C@@H](NC1COC1)CC(=O)N1CCCC(CCO2)C1 (stereo partly drawn) [Compound 35, (9S,12S)-5^4-methyl-12-(oxetan-3-ylamino)-9-phenethyl-4-oxa-7,10-diaza-1(3,1)-piperidina-5(1,3)-benzenacyclotetradecaphane-8,11,14-trione] | < 100 | < 100 | – |
| Cc1ccc2cc1CNC(=O)[C@H](CCc1ccccc1)NC(=O)[C@@H](NC(=O)Cc1ccccc1C)CC(=O)N1CCCC(CCO2)C1 (stereo partly drawn) [Compound 373, N-((9S,12S)-5^4-methyl-8,11,14-trioxo-9-phenethyl-4-oxa-7,10-diaza-1(3,1)-piperidina-5(1,3)-benzenacyclotetradecaphane-12-yl)-2-(o-tolyl)acetamide] | – | < 100 | IC50 [5]: < 100 nM |
